Among the data in US8410112B2, “Compounds useful as inhibitors of ATR kinase” (Vertex Pharmaceuticals Incorporated, priority 2008, dated 2013) are Ki values, retold here.

T1 sequence (Q13535 whole entry): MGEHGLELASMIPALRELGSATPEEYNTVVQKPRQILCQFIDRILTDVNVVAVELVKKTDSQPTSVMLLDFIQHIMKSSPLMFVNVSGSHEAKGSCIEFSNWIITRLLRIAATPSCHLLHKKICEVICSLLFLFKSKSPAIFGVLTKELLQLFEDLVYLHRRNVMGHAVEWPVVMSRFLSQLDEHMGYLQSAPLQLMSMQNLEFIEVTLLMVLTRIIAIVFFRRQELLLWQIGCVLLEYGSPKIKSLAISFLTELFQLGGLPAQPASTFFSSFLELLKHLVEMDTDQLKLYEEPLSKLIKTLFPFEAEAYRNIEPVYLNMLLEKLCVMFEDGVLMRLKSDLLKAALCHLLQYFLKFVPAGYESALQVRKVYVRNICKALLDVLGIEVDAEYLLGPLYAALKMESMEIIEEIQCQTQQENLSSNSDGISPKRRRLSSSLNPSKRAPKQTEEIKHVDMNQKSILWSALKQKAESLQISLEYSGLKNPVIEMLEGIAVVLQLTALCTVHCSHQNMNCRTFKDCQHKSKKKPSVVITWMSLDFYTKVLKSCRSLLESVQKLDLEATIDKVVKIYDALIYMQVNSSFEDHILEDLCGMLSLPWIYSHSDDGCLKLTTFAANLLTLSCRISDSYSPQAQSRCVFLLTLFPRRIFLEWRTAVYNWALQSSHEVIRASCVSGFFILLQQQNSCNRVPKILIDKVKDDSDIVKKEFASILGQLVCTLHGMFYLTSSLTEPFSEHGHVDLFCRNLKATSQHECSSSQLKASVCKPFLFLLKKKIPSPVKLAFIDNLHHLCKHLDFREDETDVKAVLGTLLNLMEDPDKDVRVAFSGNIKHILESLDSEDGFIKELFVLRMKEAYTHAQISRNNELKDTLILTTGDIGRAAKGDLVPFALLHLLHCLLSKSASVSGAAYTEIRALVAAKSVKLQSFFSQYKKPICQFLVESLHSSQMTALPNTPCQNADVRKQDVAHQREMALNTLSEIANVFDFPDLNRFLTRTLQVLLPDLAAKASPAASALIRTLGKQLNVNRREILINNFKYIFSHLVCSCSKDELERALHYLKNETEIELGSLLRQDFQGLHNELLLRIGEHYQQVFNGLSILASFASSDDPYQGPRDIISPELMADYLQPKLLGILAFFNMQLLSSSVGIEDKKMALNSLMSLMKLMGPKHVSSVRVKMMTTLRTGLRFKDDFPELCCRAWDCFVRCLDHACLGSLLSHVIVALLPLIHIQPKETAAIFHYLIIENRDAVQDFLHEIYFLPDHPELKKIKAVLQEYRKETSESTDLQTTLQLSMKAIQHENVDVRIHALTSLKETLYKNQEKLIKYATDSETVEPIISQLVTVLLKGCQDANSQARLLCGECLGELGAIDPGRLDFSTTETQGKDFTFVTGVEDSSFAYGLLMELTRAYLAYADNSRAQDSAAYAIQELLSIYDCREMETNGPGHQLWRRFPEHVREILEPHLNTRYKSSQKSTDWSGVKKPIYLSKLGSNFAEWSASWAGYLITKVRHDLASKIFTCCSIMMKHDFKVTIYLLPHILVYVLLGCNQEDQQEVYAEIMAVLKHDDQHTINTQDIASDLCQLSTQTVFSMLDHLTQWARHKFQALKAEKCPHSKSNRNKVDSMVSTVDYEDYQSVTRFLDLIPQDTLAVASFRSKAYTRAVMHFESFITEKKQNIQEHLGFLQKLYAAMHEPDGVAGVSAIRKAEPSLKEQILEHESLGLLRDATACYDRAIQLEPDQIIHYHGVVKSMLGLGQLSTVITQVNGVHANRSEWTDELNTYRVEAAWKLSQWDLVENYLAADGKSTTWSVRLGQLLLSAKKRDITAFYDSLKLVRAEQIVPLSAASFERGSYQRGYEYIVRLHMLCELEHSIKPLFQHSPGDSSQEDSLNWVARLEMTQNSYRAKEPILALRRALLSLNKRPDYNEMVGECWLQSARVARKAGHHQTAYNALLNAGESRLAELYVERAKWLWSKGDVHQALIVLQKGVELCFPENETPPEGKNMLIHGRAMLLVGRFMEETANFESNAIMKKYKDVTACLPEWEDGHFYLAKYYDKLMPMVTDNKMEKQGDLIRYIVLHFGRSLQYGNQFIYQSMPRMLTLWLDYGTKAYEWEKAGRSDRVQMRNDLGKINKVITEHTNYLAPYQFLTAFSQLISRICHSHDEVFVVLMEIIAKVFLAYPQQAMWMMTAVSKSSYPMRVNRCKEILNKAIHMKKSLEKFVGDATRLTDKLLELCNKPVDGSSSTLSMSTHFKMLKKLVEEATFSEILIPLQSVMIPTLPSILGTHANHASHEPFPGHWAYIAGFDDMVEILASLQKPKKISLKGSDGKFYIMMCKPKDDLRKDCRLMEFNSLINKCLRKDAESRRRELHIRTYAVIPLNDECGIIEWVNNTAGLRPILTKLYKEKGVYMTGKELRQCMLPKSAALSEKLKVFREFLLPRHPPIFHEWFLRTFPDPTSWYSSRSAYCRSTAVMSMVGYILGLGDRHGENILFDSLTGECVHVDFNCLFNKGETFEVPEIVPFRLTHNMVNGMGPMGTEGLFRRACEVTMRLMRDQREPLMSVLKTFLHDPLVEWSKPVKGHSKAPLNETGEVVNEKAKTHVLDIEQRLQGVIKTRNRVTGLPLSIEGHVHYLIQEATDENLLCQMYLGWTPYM

This test has as its target T1, full-length ATR (Homo sapiens, UniProt Q13535).
T1 construct: in the presence of 5 nM full-length ATR
The test is described as follows: ATR Inhibition Assay (radioactive-phosphate incorporation). Conditions: Ki(app); 5 nM full-length ATR, 10 μM ATP, 800 μM target peptide, 25° C. In kind it is biochemical. The gist of the method: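 Buffer was 50 mM Tris/HCl pH 7.5, 10 mM MgCl2, 1 mM DTT, with 5 nM enzyme, 10 μM [γ-33P]ATP and 800 μM target peptide at 25 °C. Compound was pre-incubated 10 min before ATP start, and the reaction was stopped after 24 h. Phosphocellulose filter capture; Ki(app) came from non-linear regression of background-corrected initial rates.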
Regarding `CN(C)C(=O)N1CCN(c2cnc(N)c(-c3nnc(-c4ccccc4)o3)n2)CC1` [Compound I-218, 4-(5-amino-6-(5-phenyl-1,3,4-oxadiazol-2-yl)pyrazin-2-yl)-N,N-dimethylpiperazine-1-carboxamide], the Ki lay in the range of 100 to 1000 nM. `CCS(=O)(=O)N1CCN(c2cnc(N)c(-c3nnc(-c4ccc(CNC)cc4)o3)n2)CC1(C)C` [Compound I-328, 5-(4-Ethylsulfonyl-3,3-dimethyl-piperazin-1-yl)-3-[5-[4-(methylaminomethyl)phenyl]-1,3,4-oxadiazol-2-yl]pyrazin-2-amine]: the Ki lay within 100 to 1000 nM. The result for `CNCc1ccc(-c2nnc(-c3nc(N4CCC5(C4)CN(S(=O)(=O)C(C)C)C5)cnc3N)o2)cc1` [Compound I-368, 5-(2-(Isopropylsulfonyl)-2,6-diazaspiro[3.4]octan-6-yl)-3-(5-(4-((methylamino)methyl)phenyl)-1,3,4-oxadiazol-2-yl)pyrazin-2-amine] reads 100 to 1000 nM.

`Nc1ncc(C2=CCN(S(=O)(=O)c3ccsc3)CC2)nc1-c1nnc(-c2ccccc2)o1` [Compound I-121, 3-(5-phenyl-1,3,4-oxadiazol-2-yl)-5-(1-(thiophen-3-ylsulfonyl)-1,2,3,6-tetrahydropyridin-4-yl)pyrazin-2-amine]: the Ki is less than 100 nM. For `CN(C)CC(=O)N1CC=C(c2cnc(N)c(-c3nc4ccccc4[nH]3)n2)CC1` [Compound I-186, 1-(4-(5-amino-6-(1H-benzo[d]imidazol-2-yl)pyrazin-2-yl)-5,6-dihydropyridin-1(2H)-yl)-2-(dimethylamino)ethanone], the Ki was in the range of 100 to 1000 nM. As for `Nc1ncc(C2=CCN(C(=O)C3CCC3)CC2)nc1-c1nc2ccccc2[nH]1` [Compound I-200, (4-(5-amino-6-(1H-benzo[d]imidazol-2-yl)pyrazin-2-yl)-5,6-dihydropyridin-1(2H)-yl)(cyclobutyl)methanone], the Ki was less than 100 nM.

For the compound `Nc1ncc(N2Cc3ccccc3C2=O)nc1-c1nc2ccccc2[nH]1` [Compound I-304, 2-[5-amino-6-(1H-benzimidazol-2-yl)pyrazin-2-yl]isoindolin-1-one], the Ki lay within 100 to 1000 nM. Regarding `CC(=O)NC1CCN(c2cnc(N)c(-c3nc4ccc(C)cc4[nH]3)n2)CC1` [Compound I-43, N-(1-(5-amino-6-(6-methyl-1H-benzo[d]imidazol-2-yl)pyrazin-2-yl)piperidin-4-yl)ethanamide], the Ki lay in the range of 100 to 1000 nM. With `CNCc1ccc(-c2nnc(-c3nc(N4CC[C@H](CNC(C)=O)C4)cnc3N)o2)cc1` [Compound I-317, N-[[(3R)-1-[5-Amino-6-[5-[4-(methylaminomethyl)phenyl]-1,3,4-oxadiazol-2-yl]pyrazin-2-yl]pyrrolidin-3-yl]methyl]acetamide], the Ki is less than 100 nM.

`CCS(=O)(=O)N1CC=C(c2cnc(N)c(-c3nc4cc(C(C)(C)C)ccc4[nH]3)n2)CC1` [Compound I-156, 3-(5-tert-butyl-1H-benzo[d]imidazol-2-yl)-5-(1-(ethylsulfonyl)-1,2,3,6-tetrahydropyridin-4-yl)pyrazin-2-amine]: the Ki was in the range of 1000 to 10000 nM. For `CCS(=O)(=O)N1CCN(c2cnc(N)c(-c3nc4ccccc4n3-c3ccccc3)n2)CC1` [Compound I-308, 5-(4-ethylsulfonylpiperazin-1-yl)-3-(1-phenylbenzimidazol-2-yl)pyrazin-2-amine], the Ki lay within 100 to 1000 nM.

In the case of `CCCS(=O)(=O)N1CC=C(c2cnc(N)c(-c3nc4ccccc4[nH]3)n2)CC1` [Compound I-291, 3-(1H-benzimidazol-2-yl)-5-(1-propylsulfonyl-3,6-dihydro-2H-pyridin-4-yl)pyrazin-2-amine], the Ki was less than 100 nM. With `Nc1ncc(C2=CCN(C(=O)Cc3ccccc3)CC2)nc1-c1nc2ccccc2[nH]1` [Compound I-213, 1-(4-(5-amino-6-(1H-benzo[d]imidazol-2-yl)pyrazin-2-yl)-5,6-dihydropyridin-1(2H)-yl)-2-phenylethanone], the Ki fell in the range of 100 to 1000 nM. `COC(=O)N1CCN(c2cnc(N)c(-c3nc4ccccc4[nH]3)n2)CC1` [Compound I-268, methyl 4-(5-amino-6-(1H-benzo[d]imidazol-2-yl)pyrazin-2-yl)piperazine-1-carboxylate]: the Ki lay within 1000 to 10000 nM. Then `Nc1ncc(N2CCN(C(=O)N3CCOCC3)CC2)nc1C(=O)Nc1ccccn1` [Compound I-114, 3-amino-6-(4-(morpholine-4-carbonyl)piperazin-1-yl)-N-(pyridin-2-yl)pyrazine-2-carboxamide], with 1000 to 10000 nM; and `Nc1ncc(N2CCNCC2)nc1C(=O)Nc1ccccn1` [Compound I-42, 3-amino-6-(piperazin-1-yl)-N-(pyridin-2-yl)pyrazine-2-carboxamide], with 1000 to 10000 nM; and `CCS(=O)(=O)N1CCN(c2cnc(N)c(-c3nc4ccc(C)cc4[nH]3)n2)CC1` [Compound I-6, 5-(4-(ethylsulfonyl)piperazin-1-yl)-3-(6-methyl-1H-benzo[d]imidazol-2-yl)pyrazin-2-amine], with 100 to 1000 nM.

As for `CNCc1ccc(-c2nnc(-c3nc(N4C[C@@H]5C(C(=O)O)[C@@H]5C4)cnc3N)o2)cc1` (stereo partly drawn) [Compound I-349, (1R,5S)-3-[5-Amino-6-[5-[4-(methylaminomethyl)phenyl]-1,3,4-oxadiazol-2-yl]pyrazin-2-yl]-3-azabicyclo[3.1.0]hexane-6-carboxylic acid], the Ki is 100 to 1000 nM. The result for `Cc1ccc2nc(-c3nc(C4=CCN(S(=O)(=O)N(C)C)CC4)cnc3N)[nH]c2c1` [Compound I-23, 4-(5-amino-6-(6-methyl-1H-benzo[d]imidazol-2-yl)pyrazin-2-yl)-N,N-dimethyl-5,6-dihydropyridine-1(2H)-sulfonamide] reads less than 100 nM; that for `Nc1ncc(N2CCNCC2)nc1-c1nnc(-c2ccccc2)o1` [Compound I-37, 3-(5-phenyl-1,3,4-oxadiazol-2-yl)-5-(piperazin-1-yl)pyrazin-2-amine], 1000 to 10000 nM; that for `Cc1cccc(C)c1C(=O)N1CCN(c2cnc(N)c(-c3nnc(-c4ccccc4)o3)n2)CC1` [Compound I-258, (4-(5-amino-6-(5-phenyl-1,3,4-oxadiazol-2-yl)pyrazin-2-yl)piperazin-1-yl)(2,6-dimethylphenyl)methanone], 100 to 1000 nM. Then `CC(=O)N1CCCN(c2cnc(N)c(-c3nc4ccc(C)cc4[nH]3)n2)CC1` [Compound I-1, 1-(4-(5-amino-6-(6-methyl-1H-benzo[d]imidazol-2-yl)pyrazin-2-yl)-1,4-diazepan-1-yl)ethanone], with 1000 to 10000 nM; and `CCNC1CC=C(c2cnc(N)c(-c3nnc(-c4ccccc4)o3)n2)CC1` (stereo not shown) [Compound I-314, 5-(4-(Ethylamino)cyclohex-1-enyl)-3-(5-phenyl-1,3,4-oxadiazol-2-yl)pyrazin-2-amine], with 100 to 1000 nM; and `Cc1ccc2nc(-c3nc(N4CCS(=O)(=O)CC4)cnc3N)[nH]c2c1` [Compound I-21, 5-(1,1-dioxo-1,4-thiazinan-4-yl)-3-(6-methyl-1H-benzimidazol-2-yl)pyrazin-2-amine], with 1000 to 10000 nM.

With `CNCc1ccc(-c2nnc(-c3nc(N4CC[C@@H](CNC(C)=O)C4)cnc3N)o2)cc1` [Compound I-323, N-[[(3S)-1-[5-Amino-6-[5-[4-(methylaminomethyl)phenyl]-1,3,4-oxadiazol-2-yl]pyrazin-2-yl]pyrrolidin-3-yl]methyl]acetamide], the Ki is less than 100 nM.
